Earlier results, collected in patent US7193101B2, “Esters with antimicrobial, bioresistant and fungal resistant properties” (TPAT IP, priority 2004, dated 2007).

Assays:
[1] = system: various strains of both gram positive and gram negative bacteria
[2] = system: fungi
[3] = system: nematodes; details: prior art U.S. Pat. No. 5,013,762
[4] = prior art U.S. Pat. No. 5,866,511

Row | Compound | average minimum inhibitory concentration ([1]; average over gram positive and gram negative strains) | effective concentration against bacteria ([1]; various strains of gram positive and gram negative bacteria) | antifungal activity [2] | effectiveness for the treatment of nematodes in the soil [3] | effectiveness as a general biocide [4]
1 | O=[N+]([O-])C(Br)(CO)CO [BNPD, 2-bromo-2-nitro-propane-1,3-diol] | around 25 ppm | 1–50 ppm | antifungal | – | –
2 | O=[N+]([O-])CBr [bromonitromethane] | – | – | – | effective | effective
